Test results published in PMC6039436, “Radiobrominated benzimidazole-quinoline derivatives as Platelet-derived growth factor receptor beta (PDGFRβ) imaging probes” (Scientific Reports, 2018).
Marks after values point to notes of the source that are not given here.

Tests used:
[1] = Biodistribution in ddY mice; format: in vivo; settings: i.v. co-injection
Description: In this study, to minimize both the number of mice consumed in the experiment and the potential for experimental errors, we co-injected radiobrominated and radioiodinated compounds into mice[30],[31]. High radioactivity in the liver, small intestine, and large intestine was observed.
(§1) Mice were intravenously injected via the tail with 100 µL of saline solution of [^77Br]2 and [^125I]4 or [^77Br]3 and [^125I]5 (74 kBq, respectively), containing 10% ethanol and 1% tween-80. The ddY mice were sacrificed at 10 min, 1, 4, and 24 h postinjection. Meanwhile, tumor-bearing mice were sacrificed at 1 h postinjection.
(§2) Tissues in mice were resected and weighed. The radioactivity of the tissues was counted by a gamma counter and counts were corrected for background radiation. The data were expressed as percent injection dose per gram tissue (%ID/g).

BxPC3-luc tumor = assay: Biodistribution in BxPC3-luc tumor-bearing mice; format: in vivo, BALB/c nu/nu mice
Description: We investigated the biodistribution of the radiotracers in BxPC3-luc tumor-bearing mice by co-injecting [^77Br]2 with [^125I]4 (Table 3), and [^77Br]3 with [^125I]5 (Table 4).
Animal experiments were conducted in strict accordance with the Guidelines for the Care and Use of Laboratory Animals of Kanazawa University. The animal experimental protocols used were approved by the Committee on Animal Experimentation of Kanazawa University (Permit Number: AP-163766). The animals were housed with free access to food and water at approximately 23 °C with a 12 h light/dark schedule. ddY mice (six-week-old, male, 27–30 g) and BALB/c nu/nu mice (four-week-old, female, 12–17 g) were purchased from Japan SLC Inc. (Hamamatsu, Japan). For preparing the tumor-bearing mice, BxPC3-luc cells (5 × 10^6 cells) were subcutaneously injected into the left shoulder of BALB/c nu/nu mice. The tumor reached palpable size after two weeks of the inoculation.
as §1, §2

[2] = design: method as in PMID 28838832; settings: radioiodinated compounds; cited from earlier work
[3] = system: BxPC3-luc cells (PDGFRβ-positive); assay: Cellular uptake study (double tracer method); format: cell-based; settings: BxPC3-luc (PDGFRβ-positive) vs MCF7 (PDGFRβ-negative), 0.5–4 h
Description: Figure 5 Cellular uptake study. Time-dependent accumulation of (a) [^77Br]2 and [^125I]4 (b) [^77Br]3 and [^125I]5 in BxPC3-luc and MCF7 cells. Data were presented as mean ± SD for three samples.
Radiotracer uptake experiments in tumor cells were performed using BxPC3-luc and MCF7 cell lines. To compare the uptake between radiobrominated compounds, [^77Br]2 and [^77Br]3, and the corresponding radioiodinated compounds, [^125I]4 and [^125I]5, the cellular uptake experiments were performed by a double tracer method as described previously with a slight modification[30],[31],[35]. Briefly, the cells were seeded in RPMI 1640 medium containing 10% FBS and antibiotics on six-well plates (2 × 10^5 cells/well) for 24 h in a 5% CO2 incubator at 37 °C. After removal of medium, cells were incubated in medium without FBS containing [^77Br]2 (3.7 kBq/well) and [^125I]4 (3.7 kBq/well) or [^77Br]3 (3.7 kBq/well) and [^125I]5 (3.7 kBq/well) and tween-80 (0.1%) for 0.5, 1, 2 and 4 h. Radioiodinated compounds were prepared as described previously][24]. Cells were washed with ice-cold 1 mL of PBS and dissolved using 0.5 mL of 1 M NaOH and wells were washed with 1 M NaOH aqueous solution (0.5 mL). The radioactivity of pooled basic fractions was counted by a gamma counter. A range between 16 and 71 keV was used for measuring ^125I and between 95 and 700 for ^77Br. When radioactivity of ^77Br was counted, the crossover of ^125I activity into the ^77Br channel was negligible. More than one month after the experiment, the radioactivity of ^125I was determined because at that time ^77Br has been decayed and its radioactivity was negligible. The protein in the cell was quantified by a BCA Protein Assay Kit. All data were expressed as %dose/µg protein.

SMILES: COCCOc1ccc2c(c1)ncn2-c1ccc2c([125I])ccc(N3CCC(N)CC3)c2n1 [[^125I]4, [^125I]1-{5-iodo-2-[5-(2-methoxyethoxy)-1H-benzo[d]imidazol-1-yl]quinolin-8-yl}piperidin-4-amine, reference compound]
- Radioactivity in Blood ([1]; 10 min): 1.15 (0.08)^* %injected dose/gram tissue
- Radioactivity in Bone ([1]; 10 min): 1.53 (0.14) %injected dose/gram tissue
- Radioactivity in Brain ([1]; 10 min): 0.07 (0.00)^** %injected dose/gram tissue
- Radioactivity in Heart ([1]; 10 min): 4.27 (0.27) %injected dose/gram tissue
- Radioactivity in Kidney ([1]; 10 min): 14.44 (1.31) %injected dose/gram tissue
- Radioactivity in Large intestine ([1]; 10 min): 0.80 (0.07)^* %injected dose/gram tissue
- Radioactivity in Liver ([1]; 10 min): 11.59 (0.69) %injected dose/gram tissue
- Radioactivity in Lung ([1]; 10 min): 9.64 (0.66)^* %injected dose/gram tissue
- Radioactivity in Muscle ([1]; 10 min): 1.92 (0.18) %injected dose/gram tissue
- Radioactivity in Pancreas ([1]; 10 min): 3.52 (0.33)^* %injected dose/gram tissue
- Radioactivity in Small intestine ([1]; 10 min): 9.32 (2.30) %injected dose/gram tissue
- Radioactivity in Spleen ([1]; 10 min): 5.08 (0.56) %injected dose/gram tissue
- Radioactivity in Stomach ([1]; 10 min): 1.66 (0.11) %injected dose /organ
- Radioactivity in Blood ([1]; 1 h): 0.32 (0.09) %injected dose/gram tissue
- Radioactivity in Bone ([1]; 1 h): 1.22 (0.29) %injected dose/gram tissue
- Radioactivity in Brain ([1]; 1 h): 0.15 (0.04) %injected dose/gram tissue
- Radioactivity in Heart ([1]; 1 h): 1.23 (0.49) %injected dose/gram tissue
- Radioactivity in Kidney ([1]; 1 h): 8.18 (2.71) %injected dose/gram tissue
- Radioactivity in Large intestine ([1]; 1 h): 2.16 (0.54) %injected dose/gram tissue
- Radioactivity in Liver ([1]; 1 h): 3.72 (1.18) %injected dose/gram tissue
- Radioactivity in Lung ([1]; 1 h): 3.88 (0.72) %injected dose/gram tissue
- Radioactivity in Muscle ([1]; 1 h): 0.78 (0.11) %injected dose/gram tissue
- Radioactivity in Pancreas ([1]; 1 h): 2.49 (0.63) %injected dose/gram tissue
- Radioactivity in Small intestine ([1]; 1 h): 25.44 (6.86) %injected dose/gram tissue
- Radioactivity in Spleen ([1]; 1 h): 1.67 (0.41) %injected dose/gram tissue
- Radioactivity in Stomach ([1]; 1 h): 1.76 (0.58) %injected dose /organ
- Radioactivity in Blood ([1]; 4 h): 0.19 (0.05) %injected dose/gram tissue
- Radioactivity in Bone ([1]; 4 h): 0.32 (0.08) %injected dose/gram tissue
- Radioactivity in Brain ([1]; 4 h): 0.03 (0.00)^** %injected dose/gram tissue
- Radioactivity in Heart ([1]; 4 h): 0.31 (0.05)^* %injected dose/gram tissue
- Radioactivity in Kidney ([1]; 4 h): 4.28 (0.68) %injected dose/gram tissue
- Radioactivity in Large intestine ([1]; 4 h): 51.43 (8.57) %injected dose/gram tissue
- Radioactivity in Liver ([1]; 4 h): 3.45 (1.02) %injected dose/gram tissue
- Radioactivity in Lung ([1]; 4 h): 2.18 (0.55) %injected dose/gram tissue
- Radioactivity in Muscle ([1]; 4 h): 0.23 (0.06)^** %injected dose/gram tissue
- Radioactivity in Pancreas ([1]; 4 h): 1.27 (0.11)^* %injected dose/gram tissue
- Radioactivity in Small intestine ([1]; 4 h): 4.98 (0.89) %injected dose/gram tissue
- Radioactivity in Spleen ([1]; 4 h): 0.43 (0.11) %injected dose/gram tissue
- Radioactivity in Stomach ([1]; 4 h): 0.85 (0.21) %injected dose /organ
- Radioactivity in Blood ([1]; 24 h): 0.03 (0.00)^** %injected dose/gram tissue
- Radioactivity in Bone ([1]; 24 h): 0.15 (0.05)^** %injected dose/gram tissue
- Radioactivity in Brain ([1]; 24 h): 0.02 (0.00)^** %injected dose/gram tissue
- Radioactivity in Heart ([1]; 24 h): 0.10 (0.09)^** %injected dose/gram tissue
- Radioactivity in Kidney ([1]; 24 h): 0.13 (0.03) %injected dose/gram tissue
- Radioactivity in Large intestine ([1]; 24 h): 0.14 (0.02) %injected dose/gram tissue
- Radioactivity in Liver ([1]; 24 h): 0.29 (0.08) %injected dose/gram tissue
- Radioactivity in Lung ([1]; 24 h): 0.15 (0.08)^* %injected dose/gram tissue
- Radioactivity in Muscle ([1]; 24 h): 0.04 (0.01)^** %injected dose/gram tissue
- Radioactivity in Pancreas ([1]; 24 h): 0.07 (0.02) %injected dose/gram tissue
- Radioactivity in Small intestine ([1]; 24 h): 0.04 (0.00)^** %injected dose/gram tissue
- Radioactivity in Spleen ([1]; 24 h): 0.11 (0.09)^* %injected dose/gram tissue
- Radioactivity in Stomach ([1]; 24 h): 0.05 (0.00)^** %injected dose /organ
- Tumor-to-blood ratio of radioactivity (BxPC3-luc tumor; 1 h postinjection): 1.9
- Radioactivity in Blood (BxPC3-luc tumor; i.v. co-injection, 1 h): 0.63 (0.05) %injected dose/gram of tissue
- Radioactivity in Bone (BxPC3-luc tumor; i.v. co-injection, 1 h): 0.83 (0.10)^* %injected dose/gram of tissue
- Radioactivity in Brain (BxPC3-luc tumor; i.v. co-injection, 1 h): 0.07 (0.00) %injected dose/gram of tissue
- Radioactivity in BxPC3-luc tumor (BxPC3-luc tumor; i.v. co-injection, 1 h): 1.19 (0.06)^* %injected dose/gram of tissue
- Radioactivity in Heart (BxPC3-luc tumor; i.v. co-injection, 1 h): 1.51 (0.40) %injected dose/gram of tissue
- Radioactivity in Kidney (BxPC3-luc tumor; i.v. co-injection, 1 h): 15.56 (3.61) %injected dose/gram of tissue
- Radioactivity in Large intestine (BxPC3-luc tumor; i.v. co-injection, 1 h): 2.46 (0.35) %injected dose/gram of tissue
- Radioactivity in Liver (BxPC3-luc tumor; i.v. co-injection, 1 h): 11.02 (0.73) %injected dose/gram of tissue
- Radioactivity in Lung (BxPC3-luc tumor; i.v. co-injection, 1 h): 9.14 (2.14) %injected dose/gram of tissue
- Radioactivity in Muscle (BxPC3-luc tumor; i.v. co-injection, 1 h): 0.79 (0.10) %injected dose/gram of tissue
- Radioactivity in Pancreas (BxPC3-luc tumor; i.v. co-injection, 1 h): 5.48 (0.93) %injected dose/gram of tissue
- Radioactivity in Small intestine (BxPC3-luc tumor; i.v. co-injection, 1 h): 47.01 (5.56) %injected dose/gram of tissue
- Radioactivity in Spleen (BxPC3-luc tumor; i.v. co-injection, 1 h): 2.76 (0.73) %injected dose/gram of tissue
- Radioactivity in Stomach (BxPC3-luc tumor; i.v. co-injection, 1 h): 0.97 (0.19) %injected dose /organ
- n-octanol/phosphate buffer partition coefficient (log P) [2]: 2.71 ± 0.03
- Cellular uptake in BxPC3-luc cells [3]: higher than that in MCF7 cells
